The results in this text go back to US20090111824A1, “AMIDE LINKED HETEROAROMATIC DERIVATIVES AS MODULATORS OF MGLUR5” (AstraZeneca AB, priority 2007, published 2009).

The nature of data set [1]: Determination of brain to plasma ratio in rat. It is filed as in vivo. Particulars: brain and plasma, female Sprague Dawley rats, read-out: Brain/Plasma Ratio of compound in Rat. As to the method: Brain to plasma ratios are estimated in female Sprague Dawley rats. The compound is dissolved in water or another appropriate vehicle. For determination of brain to plasma ratio the compound is administrated as a subcutaneous, or an intravenous bolus injection, or an intravenous infusion, or an oral administration. At a predetermined time point after the administration a blood sample is taken with cardiac puncture. The rat is terminated by cutting the heart open, and the brain is immediately retained. The blood samples are collected in heparinized tubes and centrifuged within 30 minutes, in order to separate the plasma from the blood cells. The plasma is transferred to 96-well plates and stored at −20° C. until analysis. The brains are divided in half, and each half is placed in a pre-tarred tube and stored at −20° C. until analysis. Prior to the analysis, the brain samples are thawed and 3 mL/g brain tissue of distilled water is added to the tubes. The brain samples are sonicated in an ice bath until the samples are homogenized. Both brain and plasma samples are precipitated with acetonitrile. After centrifugation, the supernatant is diluted with 0.2% formic acid. Analysis is performed on a short reversed-phase HPLC column with rapid gradient elution and MSMS detection using a triple quadrupole instrument with electrospray ionisation and Selected Reaction Monitoring (SRM) acquisition. Liquid-liquid extraction may be used as an alternative sample clean-up. The samples are extracted, by shaking, to an organic solvent after addition of a suitable buffer. An aliquot of the organic layer is transferred to a new vial and evaporated to dryness under a stream of nitrogen. After reconstitution of the residuals the samples are ready for injection onto the HPLC column.

Another data set concerns the target T1, human mGluR5d (Homo sapiens, UniProt P41594).
T1 construct: expressed in transfected cells; The cells are kept under Hygromycin B and Zeocin selection; The separate IP3 assay names GHEK cells
Nature of the data set: FLIPR assay, functional assessment of mGluR5 antagonism (intracellular calcium mobilization). Particulars: cells expressing human mGluR5d; read-out: FLIPR hmGluR5d. The format is cell-based. An excerpt:
Functional Assessment of mGluR5 Antagonism in Cell Lines Expressing mGluR5D
The properties of the compounds of the invention can be analyzed using standard assays for pharmacological activity. Examples of glutamate receptor assays are well known in the art as described in for example Aramori et al., Neuron 8:757 (1992), Tanabe et al., Neuron 8:169 (1992), Miller et al., J. Neuroscience 15: 6103 (1995), Balazs, et al., J. Neurochemistry 69:151 (1997). The methodology described in these publications is incorporated herein by reference. Conveniently, the compounds of the invention can be studied by means of an assay (FLIPR) that measures the mobilization of intracellular calcium, [Ca^2+]i in cells expressing mGluR5 or another assay (IP3) that measures inositol phosphate turnover.
Cells expressing human mGluR5d as described in WO97/05252 cultured in a mixture of high glucose DMEM with Glutamax (31966-021)(500 mL), 10% dialyzed fetal bovine serum (Hyclone #SH30079.03)(56 mL), 200 μg/mL Hygromycin B (Invitrogen 45-0430, 50 mg/mL)(2.2 mL), 200 μg/mL Zeocin (Invitrogen #R250-01; 100 mg/l mL)(1.1 mL) are seeded at a density of 100,000 cells per well on collagen coated clear bottom 96-well plates with black sides and cells were allowed to adhere over night before experiments. All assays are done in a buffer containing 146 mM NaCl, 5 mM KCl, 1 mM MgCl2, 1 mM CaCl2, 20 mM HEPES, 1 mg/mL glucose and 1 mg/mL BSA Fraction IV (pH 7.4). Cell cultures in the 96-well plates are loaded for 60 minutes in the above mentioned buffer containing 6 μM of the acetoxymethyl ester form of the fluorescent calcium indicator fluo-3 (Molecular Probes, Eugene, Oreg.) in 0.025% pluronic acid (a proprietary, non-ionic surfactant polyol—CAS Number 9003-11-6). […] The fluorescence signal is sampled 50 times at 1-second intervals followed by 3 samples at 5-second intervals immediately after each of the two additions. Responses are measured as the difference between the peak heights of the response to agonist, less the background fluorescence within the sample period. […]

T1 sequence (P41594 21-942 isoform P41594-3 limits assumed): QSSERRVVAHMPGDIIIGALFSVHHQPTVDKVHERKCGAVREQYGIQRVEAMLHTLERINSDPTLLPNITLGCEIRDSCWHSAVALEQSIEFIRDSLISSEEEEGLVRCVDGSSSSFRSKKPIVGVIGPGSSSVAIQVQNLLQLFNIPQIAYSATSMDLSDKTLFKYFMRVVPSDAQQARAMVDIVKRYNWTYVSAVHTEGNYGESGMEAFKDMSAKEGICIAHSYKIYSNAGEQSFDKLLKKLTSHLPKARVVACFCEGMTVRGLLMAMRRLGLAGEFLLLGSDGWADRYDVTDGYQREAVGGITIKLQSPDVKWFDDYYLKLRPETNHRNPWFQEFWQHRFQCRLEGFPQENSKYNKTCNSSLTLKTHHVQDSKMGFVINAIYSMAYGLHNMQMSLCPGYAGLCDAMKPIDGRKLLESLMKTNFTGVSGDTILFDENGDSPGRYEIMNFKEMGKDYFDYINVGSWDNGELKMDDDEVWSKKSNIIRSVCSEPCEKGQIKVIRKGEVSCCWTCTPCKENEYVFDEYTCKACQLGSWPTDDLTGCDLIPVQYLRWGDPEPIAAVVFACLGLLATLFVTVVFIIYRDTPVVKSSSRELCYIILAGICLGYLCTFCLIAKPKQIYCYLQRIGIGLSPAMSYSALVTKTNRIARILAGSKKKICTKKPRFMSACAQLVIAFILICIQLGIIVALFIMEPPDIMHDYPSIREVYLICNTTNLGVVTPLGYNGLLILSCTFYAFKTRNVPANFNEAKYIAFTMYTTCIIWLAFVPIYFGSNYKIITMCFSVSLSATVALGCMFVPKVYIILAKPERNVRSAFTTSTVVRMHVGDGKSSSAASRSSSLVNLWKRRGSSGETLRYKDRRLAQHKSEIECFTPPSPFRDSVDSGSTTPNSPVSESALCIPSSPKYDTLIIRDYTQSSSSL

With `CN(C(=O)c1cc(-c2cccc(Cl)c2)on1)c1nnc(-c2ccncc2)n1C` [Example 1, 5-(3-Chlorophenyl)-N-methyl-N-(4-methyl-5-pyridin-4-yl-4H-1,2,4-triazol-3-yl)isoxazole-3-carboxamide], the Kp in data set [1] was determined as 0.26. Moreover, the IC50 on human mGluR5d worked out at 37 nM.
The like results for `Cc1cccc(-n2nnc(C(=O)N(C)c3nnc(-c4cn[nH]c(=O)c4)n3C)n2)c1` [Example 4, N-Methyl-N-[4-methyl-5-(6-oxo-1,6-dihydropyridazin-4-yl)-4H-1,2,4-triazol-3-yl]-2-(3-methylphenyl)-2H-tetrazole-5-carboxamide] were, in that order, below 0.01 and 567 nM.
Consider `CN(C(=O)c1cc(-c2cccc(Cl)c2)on1)c1nnc(-c2cn[nH]c(=O)c2)n1C` [Example 3, 5-(3-Chlorophenyl)-N-methyl-N-[4-methyl-5-(6-oxo-1,6-dihydropyridazin-4-yl)-4H-1,2,4-triazol-3-yl]isoxazole-3-carboxamide], for which the Kp in data set [1] turned out to be 0.19. Further, on human mGluR5d, the IC50 turned out to be 62 nM.
